“And” between values parts separate entries of the source, which are not always exact repeats. Identical values can stand only once.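 Each compound was tested at five concentrations against cells in 96-well plates for 48 hours. The concentration for 50% growth inhibition is given as GI50. Definition used: TGI = concentration required for complete inhibition of growth.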
Assays:
Test in all cases: NCI tumour cell line growth inhibition, 48 h
786-0 renal = tested on: 786-0 renal
A498 renal = tested on: A498 renal
A549 NSCLC = tested on: A549 NSCLC
CAKI-1 renal = tested on: CAKI-1 renal
CCRF-CEM leukemia = tested on: CCRF-CEM leukemia
DU-145 prostate = tested on: DU-145 prostate
HOP-62 NSCLC = tested on: HOP-62 NSCLC
MALME-3M melanoma = tested on: MALME-3M melanoma
MOLT-4 leukemia = tested on: MOLT-4 leukemia
SK-OV-3 ovarian = tested on: SK-OV-3 ovarian

Structure (SMILES)	GI50 (786-0 renal)	TGI (786-0 renal)	GI50 (A498 renal)	TGI (A498 renal)	GI50 (A549 NSCLC)	TGI (A549 NSCLC)	GI50 (CAKI-1 renal)	TGI (CAKI-1 renal)	GI50 (CCRF-CEM leukemia)	TGI (CCRF-CEM leukemia)	GI50 (DU-145 prostate)	TGI (DU-145 prostate)	GI50 (HOP-62 NSCLC)	TGI (HOP-62 NSCLC)	GI50 (MALME-3M melanoma)	TGI (MALME-3M melanoma)	GI50 (MOLT-4 leukemia)	TGI (MOLT-4 leukemia)	GI50 (SK-OV-3 ovarian)	TGI (SK-OV-3 ovarian)
COc1cc2c(cc1OC)-c1c(c3ccc([N+](=O)[O-])cc3c(=O)n1CCCN)C2=O	716 nM	1.84 µM	6270 nM	13.2 µM	0.395 µM	1.68 µM	658 nM	9.16 µM	495 nM	2.4 µM	684 nM	1.37 µM	1.28 µM	8.24 µM	5.31 µM	16.4 µM	165 nM	1.6 µM	8.81 µM	20.2 µM
CCN1CCC(CC(=O)Nc2n[nH]c3nc(-c4cccs4)c(Br)cc23)CC1	10700 nM	> 25 µM	7870 nM	> 25 µM	8.82 µM	> 25 µM	4290 nM	> 25 µM	9570 nM	> 25 µM	8500 nM	> 25 µM	10.6 µM	> 25 µM	6.42 µM	13.4 µM	9070 nM	24.5 µM	9.24 µM	> 25 µM
O=C1CC/C(=C\COc2ccc3ccc(=O)oc3c2)O1	2890 nM	15.9 µM	16800 nM	44 µM	24.1 µM	> 100 µM	1970 nM	20.6 µM	2420 nM	13.6 µM	1890 nM	14.1 µM	17.6 µM	38.2 µM	3.47 µM	24.4 µM	6410 nM	> 100 µM	27.8 µM	> 100 µM
CO/N=C(/COc1c(-c2ccccc2)oc2ccccc2c1=O)c1ccc(F)cc1	25100 nM	64 µM	61200 nM	> 100 µM	57.4 µM	> 100 µM	> 100000 nM	> 100 µM	12600 nM	67.9 µM	> 100000 nM	> 100 µM	27.3 µM	67.8 µM	52.9 µM	> 100 µM			62.4 µM	> 100 µM
O=C(/C=C\c1ccc2ccccc2n1)c1cc(Cl)ccc1O	4280 nM	14.6 µM	28900 nM	> 100 µM	57.9 µM	> 100 µM	5490 nM	21.5 µM	2160 nM	8.29 µM	5810 nM	19.4 µM	6.54 µM	20.7 µM	8.64 µM	25.8 µM	3120 nM	24.1 µM	61.4 µM	> 100 µM
C[C@@H]1COC(Nc2ccc3ncnc(Nc4ccc(OCc5nccs5)c(Cl)c4)c3c2)=N1	8310 nM and 7150 nM	> 10 µM and 27.9 µM	3020 nM and 342 nM	> 10 µM and 6.25 µM	> 10 µM and 5.3 µM	> 10 µM and 32.4 µM	2240 nM and 685 nM	> 10 µM and 15.1 µM	3550 nM and 3460 nM	> 80.9 µM	3190 nM and 3260 nM	> 10 µM and 19.3 µM	6.8 µM and 7.18 µM	> 10 µM and 20.7 µM	> 10 µM and 4.49 µM	> 10 µM and 18.5 µM	3380 nM and 2870 nM	> 10 µM and 8.72 µM	0.167 µM and 0.178 µM	> 10 µM and 14.4 µM
NC1=C(Cl)C(=O)c2ccccc2C1=O		20.2 µM		35.7 µM		8.44 µM		34.1 µM		32.5 µM		3.84 µM		32 µM		3.13 µM		22.4 µM		33.1 µM
CCCCCCN1CCN(Cc2ccc(N(CC)CC)cc2)C(=O)C1=O	4880 nM	> 100 µM	973 nM	5.77 µM	4.29 µM	> 100 µM	7230 nM	> 100 µM	2690 nM	> 100 µM	3380 nM	48.7 µM	4.97 µM	> 100 µM	4.25 µM	> 100 µM	3420 nM	32.8 µM	3.61 µM	> 100 µM
COc1ccc(-c2nc3sc4c(c3c(=O)[nH]2)CCCC4)c2ccccc12		3.8 µM		0.765 µM and 0.0871 µM	0.42 µM		450 nM			> 100 µM		17.5 µM	0.629 µM		0.749 µM	9.03 µM		> 100 µM		3.74 µM
COc1ccc2c(c1)[C@@]1(C)CCC3c4ccc(O)cc4CCC3C1C2 (stereo partly drawn)	15300 nM	29.2 µM	18200 nM	33.3 µM	12.6 µM	32.2 µM	17100 nM	32.7 µM	12800 nM	45.8 µM	17600 nM	39.7 µM	22.5 µM	37.2 µM	18.7 µM	34.8 µM	17800 nM	64.2 µM	15.7 µM	29.6 µM
CO/C(=N\N=C\c1cccc(C(F)(F)F)c1)c1ccncc1	8710 nM	24.8 µM		42.8 µM	15.5 µM	> 100 µM		9.48 µM	3710 nM	84.1 µM	33600 nM	> 100 µM	13.2 µM	> 100 µM	9.42 µM	> 100 µM				99.1 µM
N=C(N)c1ccc(-c2ccc(-c3ccc(F)cc3)o2)o1	1660 nM	3.49 µM	1900 nM	5.95 µM	1.65 µM	3.3 µM	1710 nM	3.56 µM	1840 nM	5.57 µM	1800 nM	3.36 µM	1.6 µM	3.25 µM	1.63 µM	3.26 µM	1600 nM	4.68 µM	2.32 µM	7.14 µM
O=[N+]([O-])/C=C/c1ccc([N+](=O)[O-])cc1	2020 nM	3.64 µM	2980 nM	10.1 µM	3.15 µM	13.1 µM	4160 nM	21.1 µM	3630 nM	84.4 µM	1960 nM	3.77 µM	10.9 µM	23.7 µM	4.23 µM	15.1 µM	5810 nM	62.5 µM	4.15 µM	14.4 µM
CCOC(=O)/C(=C\c1ccc(F)cc1)C(C)=O		49.4 µM		34.9 µM		> 100 µM		> 100 µM		> 100 µM		56.8 µM		> 100 µM		43.1 µM		89 µM		> 100 µM
Cc1ccc2[nH]c(C(=O)NN3C(=O)C(C)SC34CCCCC4C)c(-c3ccccc3)c2c1 (stereo not drawn)	22200 nM	50.9 µM	15000 nM	32 µM	15.9 µM	32.9 µM	17000 nM	40.7 µM	21700 nM	73 µM	21700 nM	50.7 µM	20.2 µM	37.7 µM	20.4 µM	38.1 µM	12200 nM	41 µM	37.9 µM	> 100 µM
Cc1cc(NC(=O)NC(=O)c2ccccc2NC(=O)CN)ccc1Oc1ncc(Br)cn1	400 nM	24.2 µM and 17.8 µM	< 10 nM			35.8 µM		2.61 µM	47.6 nM		342 nM	20.1 µM and 15.9 µM	0.47 µM	4.18 µM and 22.3 µM	< 0.01 µM	75 µM and 89.6 µM	80.7 nM	75 µM and > 100 µM		35.8 µM and 13.9 µM
Cc1ccccc1C(C(=O)NC1CCCCC1)N(C(=O)Cn1ccnc1C)c1cccc(F)c1 (stereo not drawn)	37200 nM	> 100 µM	27100 nM	> 83.9 µM	> 100 µM	> 100 µM	> 57400 nM	> 100 µM	> 100000 nM	> 100 µM	> 76600 nM	> 100 µM	> 60.4 µM	> 100 µM	> 52.8 µM	> 100 µM	> 100000 nM	> 100 µM	> 65.4 µM	> 100 µM
COc1ccc2[nH]cc(-c3nc(-c4c[nH]c5ccncc45)cs3)c2c1	1840 nM	3.41 µM	4910 nM	16.1 µM	2.35 µM	9.5 µM	2860 nM	9.13 µM	2450 nM	7.18 µM	2730 nM	8.57 µM	2.08 µM	4.77 µM	2 µM	3.58 µM			13.7 µM	26.6 µM
CCC(=O)c1ccc2c(c1)N(CCCN1CCN(CCO)CC1)c1ccccc1S2	13200 nM	26.9 µM	8330 nM	22.3 µM	16.2 µM	32.1 µM	13400 nM	27.5 µM	9670 nM	27.9 µM	15400 nM	28.9 µM	16.2 µM	30.3 µM	8.85 µM	26.1 µM	11000 nM	26.8 µM	16.8 µM	31.6 µM
Oc1ccc(CN(Cc2ccc(C(F)(F)F)cc2)Cc2ccc(O)c3ncccc23)c2cccnc12	39.4 nM	5.21 µM	40.9 nM	97.5 µM	0.0349 µM	> 100 µM	42.8 nM		31.4 nM	> 100 µM	33.8 nM	> 100 µM	0.0319 µM	> 34.6 µM	0.0461 µM	> 100 µM	81.8 nM	> 100 µM	0.0655 µM	> 48.3 µM
O=C1OCC2=C1C(c1cccc(C(F)(F)F)c1)c1cc3c(cc1N2CCO)CCC3 (stereo not drawn)	289 nM	8.13 µM	80.4 nM	0.397 µM	0.201 µM	8.04 µM	174 nM	7.46 µM	217 nM	45.4 µM	195 nM	5.66 µM	0.178 µM	7.74 µM	0.714 µM	10.5 µM	270 nM	15.5 µM	0.179 µM	8.64 µM
CCCCCCCCCCCCCCCCn1cc[n+](Cc2ccccc2)c1C	541 nM and 210 nM	1.87 µM and 0.621 µM	1690 nM and 421 nM	3.94 µM and 1.8 µM	1.15 µM	2.57 µM			401 nM	2.48 µM	1070 nM and 235 nM	2.3 µM and 1.05 µM			0.809 µM	2.61 µM	2460 nM	> 100 µM	1.71 µM and 0.5 µM	4.67 µM and 1.81 µM
COc1ccc2c(c1)C(=O)c1c-2n(CCCN2CCOCC2)c(=O)c2cc([N+](=O)[O-])ccc12	< 10 nM		< 10 nM	0.117 µM	< 0.01 µM	3.01 µM	< 10 nM	0.53 µM	< 10 nM		< 10 nM	0.0106 µM	< 0.01 µM	0.364 µM	< 0.0117 µM	0.779 µM	< 10 nM		< 0.01 µM	14.5 µM
Cc1ccc(Oc2nc3ccccc3cc2-c2nnc(Cn3c(COc4ccccc4)nc4ccccc43)o2)cc1	3090 nM	11.8 µM	409 nM	18.7 µM	8.5 µM	24.2 µM	2290 nM	14.9 µM	414 nM	3.74 µM	5460 nM	45.7 µM	2.98 µM	13 µM	3.65 µM	15.6 µM	2180 nM	7.89 µM	11.8 µM	32.7 µM
COc1ccc(-c2cc(-c3nnc(SCC(=O)Nc4ccc(C(C)=O)cc4)o3)c3ccccc3n2)cc1	1940 nM	4.95 µM	24800 nM	72.7 µM	> 100 µM	> 100 µM			> 100000 nM	> 100 µM	> 100000 nM	> 100 µM	15.7 µM	58.6 µM	10.6 µM	91.8 µM	> 100000 nM	> 100 µM	27 µM	91.6 µM
Cc1cc(C)c2c(N)c3cccc(C)c3nc2n1	2350 nM	8.47 µM	1480 nM	3.11 µM			2250 nM	8.35 µM	3840 nM	17 µM	2330 nM	6.5 µM	1.81 µM	5.03 µM	1.93 µM	4.38 µM	2170 nM	10 µM	2.11 µM	9.36 µM
COc1cc2c(cc1OCCCN1CCN(c3cc(=O)oc4c(C)c(OC)ccc34)CC1)N=C[C@@H]1CCCN1C2=O	1050 nM	9.62 µM	2020 nM	3.96 µM			2460 nM	7.17 µM	122 nM	1.36 µM	935 nM	> 100 µM	1.64 µM	10.3 µM	1.16 µM	3.59 µM	372 nM	3.7 µM	10.2 µM	> 78.4 µM
